Source: patent US20200377485A1, “HYDANTOIN MODULATORS OF KV3 CHANNELS” (AUTIFONY THERAPEUTICS LIMITED, priority 2015, published 2020)
Values belong to the compound of their own block, whether it stands above or below them.

Assays:
[1] = General observations of behaviour during the pain studies; type: in vivo, rat; settings: acute administration, 10-60 mg/kg i.p., neuropathic and inflammatory pain models
Text: In addition to behavioural pain readings, each rat was observed throughout the study for changes in general behaviour.

[2] = tested on: rat model of neuropathic pain; test: Neuropathic pain model, partial ligation of the sciatic nerve, paw withdrawal threshold to mechanical force; type: in vivo
Description: (§1) Subjects comprised male, Wistar Hanover rats, 6 animals per group (225±2 g).
(§2) Vehicle (12% Captisol®; 0.5% w/v HPMC and 0.1% w/v Tween-80; 5 ml/kg via the intraperitoneal route) was prepared using autoclaved deionized water not more than one week prior to use.
The control for the neuropathic pain model was lamotrigine, administered at 30 mg/kg via oral delivery. The control for the inflammatory pain model was diclofenac, administered at 30 mg/kg via oral delivery. Statistical analysis was performed using one-way ANOVA, and comparisons were performed with time-matched vehicle group using Tukey's HSD test wherein * p<0.05, ** p<0.01, *** p<0.001. […]
Withdrawal thresholds were measured on both the ipsilateral (ligated) and contralateral (non-ligated) paws, prior to (predose) and then up to 24 h following drug or vehicle administration.
Pre-dose behavioural measurements were obtained by measuring paw withdrawals 14 days following nerve ligation; before the initiation of drug treatment. Following treatment, further readings were taken at 1, 3, 6 and 24 hour after administration. […]
Data were expressed as withdrawal threshold (g) and percentage reversals calculated according to the following formula: […]
Statistical analysis was carried out on withdrawal threshold readings using ANOVA with repeated measures followed by Tukey's HSD test. […]

[3] = tested on: rat model of persistent inflammatory pain; test: Persistent inflammatory pain model, intraplantar Freund's Complete Adjuvant, paw withdrawal threshold to mechanical force; type: in vivo
Description: as §1, §2
The control for the neuropathic pain model was lamotrigine, administered at 30 mg/kg via oral delivery. The control for the inflammatory pain model was diclofenac, administered at 30 mg/kg via oral delivery. Statistical analysis was performed using one-way ANOVA, and comparisons were performed with time-matched vehicle group using Tukey's HSD test wherein * p<0.05, ** p<0.01, *** p<0.001.
Mechanical hyperalgesia was examined in a model of persistent inflammatory pain. […]
To assess the effect of the test compound, paw withdrawal thresholds were measured on both the ipsilateral (FCA-injected) and contralateral (non-injected) paws, prior to (naïve) and 24 h following FCA injection (predose), and then at 1, 3, 6 and 24 h after drug or vehicle administration.
Mechanical hyperalgesia was examined in a model of neuropathic pain by measuring paw withdrawal thresholds (PWT) to increasing mechanical force applied to the dorsal surface of the rat paw using an Analgesymeter (Ugo-Basile, Milan) equipped with a wedge-shaped probe (area 1.75 mm^2). […] Both ipsilateral and contralateral paw withdrawal readings were taken. […]

[4] = target: T1, human Kv3.2 channels (hKv3.2) (Homo sapiens, UniProt Q96PR1); test: IonWorks Quattro electrophysiology, hKv3.2 stable CHO-K1 cell line (potentiation; secondary analysis of activation time Tauact); type: cell-based; settings: -15 mV depolarising step; concentration chosen to give ~0.3 nA at end of pulse: RE1 6.25, RE3 0.2, RE9 0.2, Example 1 0.8 μM; vehicle 7.1 ms
T1 construct: expressed in transfected cells
T1 sequence (Q96PR1 1-638): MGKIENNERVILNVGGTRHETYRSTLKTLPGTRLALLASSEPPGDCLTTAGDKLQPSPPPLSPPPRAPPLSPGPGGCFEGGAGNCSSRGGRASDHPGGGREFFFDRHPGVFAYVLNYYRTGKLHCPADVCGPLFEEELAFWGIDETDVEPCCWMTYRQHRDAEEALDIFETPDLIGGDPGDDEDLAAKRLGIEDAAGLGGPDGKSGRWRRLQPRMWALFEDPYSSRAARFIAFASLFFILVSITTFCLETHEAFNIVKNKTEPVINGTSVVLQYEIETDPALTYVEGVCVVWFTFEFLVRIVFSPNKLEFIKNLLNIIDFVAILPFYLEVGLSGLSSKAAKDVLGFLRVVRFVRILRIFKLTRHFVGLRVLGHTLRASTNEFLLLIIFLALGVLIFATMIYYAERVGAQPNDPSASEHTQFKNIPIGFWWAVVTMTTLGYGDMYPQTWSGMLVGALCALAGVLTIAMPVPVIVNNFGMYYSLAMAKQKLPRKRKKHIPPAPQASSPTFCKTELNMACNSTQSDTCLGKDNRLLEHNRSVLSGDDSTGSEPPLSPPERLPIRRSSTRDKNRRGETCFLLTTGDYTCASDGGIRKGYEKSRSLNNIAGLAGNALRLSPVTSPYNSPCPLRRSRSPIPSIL

Compound: Cc1ccc(Oc2ncc(N3C(=O)NC(C)(C)C3=O)cn2)c2c1OCC21CC1 [Compound X, 5,5-dimethyl-3-[2-(7-methylspiro[2H-benzofuran-3,1-cyclopropane]-4-yl)oxypyrimidin-5-yl]imidazolidine-2,4-dione]
changes in normal (general) behaviour [1]: without causing significant changes in normal behaviour
reversal of mechanical sensitivity, in words ([2]; 10, 30, 60 mg/kg i.p.): dose-related reversal of mechanical sensitivity with rapid onset and long duration of action
reversal of mechanical sensitivity, in words ([3]; 10, 30, 60 mg/kg i.p.): dose-related reversal of mechanical sensitivity with rapid onset of action

Tauact mean (activation time constant of hKv3.2 current) [4]: 18.2 ms
Compound: CC[C@@]1(C)NC(=O)N(c2ccc(Oc3ccc(C)c4c3C3(CC3)CO4)cn2)C1=O [Example 1, (5R)-5-ethyl-5-methyl-3-[5-(7-methylspiro[2H-benzofuran-3,1′-cyclopropane]-4-yl)oxy-2-pyridyl]imidazolidine-2,4-dione]

Tauact mean (activation time constant of hKv3.2 current) [4]: 9.9 ms
Compound: CC[C@H]1NC(=O)N(c2ccc(Oc3ccc(C)c(OC)c3)nc2)C1=O [RE1, (5R)-5-ethyl-3-(6-{[4-methyl-3-(methyloxy)phenyl]oxy}-3-pyridinyl)-2,4-imidazolidinedione]

Tauact mean (activation time constant of hKv3.2 current) [4]: 23.0 ms
Compound: CC[C@H]1NC(=O)N(c2ccc(Oc3ccc(C#N)cc3C(C)(C)C)nc2)C1=O [RE3, 3-(1,1-dimethylethyl)-4-({5-[(4R)-4-ethyl-2,5-dioxo-1-imidazolidinyl]-2-pyridinyl}oxy)benzonitrile]

Compound: O=C(O)Cc1ccccc1Nc1c(Cl)cccc1Cl [diclofenac]
peak reversal of mechanical sensitivity (positive control) ([3]; 30 mg/kg oral, 1 h post-dose): 64%

Compound: Nc1nnc(-c2cccc(Cl)c2Cl)c(N)n1 [lamotrigine]
peak reversal of mechanical sensitivity (positive control) ([2]; 30 mg/kg oral, 3 h post-dose): 67%
